Experimental data published in patent publication US12318388B2, “Pyrimidine derivatives for prevention and treatment of gram-negative bacterial infection, contamination and fouling” (UNIVERSITÉ DE LIÈGE, priority 2019, dated 2025).
≈ marks a conversion by molar mass, not a printed value.

Key:
[1] = test system: Escherichia coli (ATCC 8739); test: Minimal Inhibitory Concentration (MIC) on Escherichia coli with or without PMBN, OD600 after O/N growth; assay type: cell-based; settings: for Minimal inhibitory concentration With PMBN / MIC: E. coli (ATCC 8739); for Minimal inhibitory concentration With PMBN: together with PMBN at 40 μg/ml; for MIC: molecule alone
Procedure: The Minimal Inhibitory Concentration (MIC) of molecules 2329, 2412, 2452 and 2461 together with polymyxin B nonapeptide (PMBN) was determined on Escherichia coli (ATCC 8739) according to EUCAST (European Committee on Antimicrobial Susceptibility Testing) recommendations.
(§1) Briefly, a single colony grown on a Luria-Bertani Agar (LB) plate was resuspended and cultured in the LB medium overnight (O/N) in aerobic conditions (37° C. with 220 rpm shaking), next day a 1:50 inoculum in Mueller-Hinton broth (MHB) was incubated in aerobic conditions for 1h30 (OD=0.08-0.1) and an inoculum of 1:300 dilution, corresponding to 3×10^6 CFU/ml, was incubated in presence or absence of different concentrations of the molecules in 1% DMSO (vehicle) with or without Polymyxin B nonapeptide (PMBN) at 40 μg/ml. After O/N growth the OD of each culture was measured at 600 nm in a spectrophotometer (OD600). The MIC represents the concentration at which there is no visible growth of bacteria, i.e. ΔOD at 600 nm equal to zero wherein ΔOD is the difference between the resulting optical density (OD) with the molecule together with PMBN, and the optical density (OD) of the blank (blank is the medium) alone.
(§2) A single colony grown on an Lurian-Bertani (LB) agar plate is resuspended and cultured in LB medium overnight (O/N) in aerobic conditions (37° C. with 220 rpm shaking), next day a 1:50 inoculum in Mueller-Hinton broth (MHB) is incubated in aerobic conditions for 1h30 (OD=0.08-0.1) and an inoculum of 1:300 dilution, corresponding to 3×10^6 CFU/ml, is incubated in presence or absence of different concentrations of the tested molecules in 1% DMSO (vehicle) with or without PMBN at 40 μg/ml. After O/N growth the OD of each culture was measured at 600 nm (OD600) in a spectrophotometer (Victor 3-Perkin Elmer). The MIC represents the concentration at which there is no visible growth of bacteria, i.e. ΔOD at 600 nm equal to zero wherein ΔOD is the difference between the resulting optical density (OD) with the molecule together with PMBN, and the optical density (OD) of the blank (blank is the medium) alone.
as §1, with “cultured in LB medium” for “cultured in the LB medium”, “of the above-mentioned molecules in” for “of the molecules in”
as §2, with “a Luria-Bertani” for “an Lurian-Bertani”, “above-mentioned pyrazolopyrimidine molecule” for “tested molecules”, “alone. […]” for “alone.”

[2] = test system: Pseudomonas aeruginosa (ATCC27853); test: Minimal Inhibitory Concentration (MIC) on Pseudomonas aeruginosa with or without PMBN; assay type: cell-based; settings: Pseudomonas aeruginosa (ATCC 27853); for Minimal inhibitory concentration without PMBN: molecule alone; for Minimal inhibitory concentration With PMBN: together with PMBN at 0.5 μg/ml
Procedure: A single colony grown on an tryptic soy agar plate is resuspended and cultured in tryptic soy broth medium overnight (O/N) in aerobic conditions (37° C. with 220 rpm shaking), next day a 1:100 inoculum in Mueller-Hinton broth (MHB) is incubated in aerobic conditions for 3h (OD=0.5-0.6) and an inoculum of 1:1000 dilution, corresponding to 1-3×10^5 CFU/ml, is incubated in presence or absence of different concentrations of the tested molecules in 1% DMSO (vehicle) with or without PMBN at 0.5 μg/ml. After 28-30h growth the OD of each culture was measured at 600 nm (OD600) in a spectrophotometer (Victor 3-Perkin Elmer). The MIC represents the concentration at which there is no visible growth of bacteria, i.e. ΔOD at 600 nm equal to zero (blank is the medium alone) wherein ΔOD is the difference between the resulting optical density (OD) with the molecule together with PMBN, and the optical density (OD) of the blank (blank is the medium) alone.

[3] = 100 μM together with 40 μg/ml PMBN
[4] = with 10 to 50 µg/ml PMBN, particularly 40 μg/ml

Compound	Antibacterial activity against E. coli (ATCC8739) [1]	OD600 nm after O/N growth of Escherichia coli (FIG. 4) [1, 3]	Minimal inhibitory concentration With PMBN [1] [µM]	Activity against Escherichia coli (ATCC 8739), conclusion [1, 4]	Minimal inhibitory concentration without PMBN [2] [µM]	Minimal inhibitory concentration With PMBN [2] [µM]	MIC [1] [µM]	MIC ([1]; Escherichia coli, ATCC8739) [µM]	OD600 nm after O/N growth of Escherichia coli (FIG. 4) ([1]; 20 μM with 40 μg/ml PMBN)	Activity against Escherichia coli (ATCC 8739), conclusion ([1]; with 40 μg/ml PMBN)	OD600 nm after O/N growth of Escherichia coli (FIG. 4) ([1]; 50 μM with 40 μg/ml PMBN)
CCCCOc1nc(NC2CC2)c2ncn(Cc3c(F)ccc(C)c3F)c2n1 [molecule 38z″, 2-Butoxy-N-cyclopropyl-9-(2,6-difluoro-3-methylbenzyl)-9H-purin-6-amine, reference compound]	no antibacterial activity	did not differ from vehicle control	> 100	no antibacterial activity	–	–	–	–	–	–	–
CCCCOc1nc(NCc2ccccc2)c2ncn(Cc3c(F)ccc(C)c3F)c2n1 [molecule 39z″, N-Benzyl-2-butoxy-9-(2,6-difluoro-3-methylbenzyl)-9H-purin-6-amine, reference compound]	no antibacterial activity	did not differ from vehicle control	> 100	no antibacterial activity	–	–	–	–	–	–	–
CCCCCOc1nc(NCc2ccccc2)c2ncn(Cc3c(F)ccc(C)c3F)c2n1 [molecule 40z″, N-benzyl-9-(2,6-difluoro-3-methylbenzyl)-2(pentyloxy)-9H-purin-6-amine, reference compound]	no antibacterial activity	did not differ from vehicle control	> 100	no antibacterial activity	–	–	–	–	–	–	–
CCCCSc1nc(NCc2c(F)ccc(C)c2F)c2ncn(Cc3c(F)ccc(C)c3F)c2n1 [molecule 41z″, 2-(Butylthio)-N,9-bis(2,6-difluoro-3-methylbenzyl)-9H-purin-6-amine, reference compound]	no antibacterial activity	did not differ from vehicle control	> 100	no antibacterial activity	–	–	–	–	–	–	–
C=CCn1cnc2c(N[C@@H]3C[C@H]3c3ccc(F)c(F)c3)nc(SCCC)nc21 [molecule 2412, 9-allyl-N-((1R,2S)-2-(3,4-difluorophenyl)cyclopropyl)-2-(propylthio)-9H-purin-6-amine]	–	–	50 (≈ 20.1 µg/mL)	–	>100	50 (≈ 20.1 µg/mL)	>100	> 100	–	–	–
C#CCn1cnc2c(N[C@@H]3C[C@H]3c3ccc(F)c(F)c3)nc(SCCC)nc21 [molecule 2452, N-((1R,2S)-2-(3,4-difluorophenyl)cyclopropyl)-9-(prop-2-yn-1-yl)-2-(propylthio)-9H-purin-6-amine]	–	–	10 (≈ 3.99 µg/mL)	–	>100	50 (≈ 20 µg/mL)	>100	> 100	–	–	–
CCCSc1nc(N[C@@H]2C[C@H]2c2ccc(F)c(F)c2)c2ncn([C@@H]3C[C@H](O)[C@@H](O)[C@H]3O)c2n1 [molecule 2461, (1S,2R,3S,4R)-4-(6-(((1R,2S)-2-(3,4-difluorophenyl)cyclopropyl)amino)-2-(propylthio)-9H-purin-9-yl)cyclopentane-1,2,3-triol]	–	–	10 (≈ 4.78 µg/mL)	–	>100	50 (≈ 23.9 µg/mL)	>100	> 100	killed all bacteria	bactericidal activity	–
CCn1cnc2c(N[C@@H]3C[C@H]3c3ccc(F)c(F)c3)nc(SC)nc21 [molecule 2511, N-((1R,2S)-2-(3,4-difluorophenyl)cyclopropyl)-9-ethyl-2-(methylthio)-9H-purin-6-amine]	–	–	50 (≈ 18.1 µg/mL)	–	–	–	>100	> 100	–	bactericidal activity	killed all bacteria
CCSc1nc(N[C@@H]2C[C@H]2c2ccc(F)c(F)c2)c2ncn(C)c2n1 [molecule 2525, N-((1R,2S)-2-(3,4-difluorophenyl)cyclopropyl)-2-(ethylthio)-9-methyl-9H-purin-6-amine]	–	–	50 (≈ 18.1 µg/mL)	–	–	–	>100	> 100	–	bactericidal activity	killed all bacteria
CSc1nc(N[C@@H]2C[C@H]2c2ccc(F)c(F)c2)c2cnn(C)c2n1 [molecule 2539, N-((1R,2S)-2-(3,4-difluorophenyl)cyclopropyl)-1-methyl-6-(methylthio)-1H-pyrazolo[3,4-d]pyrimidin-4-amine]	–	–	25 (≈ 8.68 µg/mL)	–	–	–	>100	> 100	–	bactericidal activity	killed all bacteria
CCCCSc1nc(N[C@@H]2C[C@H]2c2ccc(F)c(F)c2)c2ncn(C)c2n1 [molecule 2833, 2-(butylthio)-N-((1R,2S)-2-(3,4-difluorophenyl)cyclopropyl)-9-methyl-9H-purin-6-amine]	–	–	90 (≈ 35.1 µg/mL)	–	–	–	>100	> 100	–	–	–
